Literature values as cited in US12247053B2 (priority 2018, dated 2025).

Tested on: American isolates of H3N2

Row | SMILES | measured resistance
1 | NC12CC3CC(CC(C3)C1)C2 [amantadine] | 91%
2 | CC(N)C12CC3CC(CC(C3)C1)C2 (centres unmarked) [rimantadine] | 91%
